# Measured values reported in the supplement of paper PMC3974653.
# System: MTT (mouse pheochromocytoma)
# Test: IC50 of cell viability (ATP content)
# Settings: (24 or 48 h)
# Procedure, shortened: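 Library compounds were tested at 8 final concentrations (0.5 nM to 46 µM) on MTT mouse pheochromocytoma cells for 24 or 48 hrs, with readout by CellTiter-Glo ATP luminescence. Signals were normalised with positive-control wells at 100% and DMSO wells at 0%. IC50 values were obtained by a four-parameter logistic fit.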
row,Compound,IC50 of cell viability [µM]
1,"ClCC1CO1 (stereo unspecified) [1,2-Epoxy-3-chloropropane (Epichlorohydrin)]",> 46
2,"O=[N+]([O-])c1cc([N+](=O)[O-])c2ccccc2c1 [1,3-Dinitronaphthalene]",> 46
3,"N=C(Nc1ccccc1)Nc1ccccc1 [1,3-Diphenylguanidine]",> 46
4,C/C=C(\CC)C(=O)NC(N)=O [1-(2-ETHYLCROTONOYL)UREA],> 46
5,COc1ccccc1N1CCNCC1.Cl [1-(2-Methoxyphenyl)piperazine hydrochloride],> 46
6,CC(=O)OC1(c2ccccc2)CCN(CCc2ccccc2)CC1 [1-(2-Phenylethyl)-4-phenyl-4-acetoxypiperidine],> 46
7,Clc1cccc(N2CCNCC2)c1 [1-(3-CHLOROPHENYL)PIPERAZINE],> 46
8,c1ccc(CN2CCNCC2)cc1 [1-Benzylpiperazine],> 46
9,"O=[N+]([O-])c1ccc(F)c([N+](=O)[O-])c1 [1-Fluoro-2,4-dinitrobenzene]",> 46
10,CCC(=O)OC1(c2ccccc2)CCN(C)CC1 [1-Methyl-4-phenyl-4-propionoxypiperidine],> 46
11,N#CC1(N2CCCCC2)CCCCC1 [1-PIPERIDINOCYCLOHEXANECARBONITRILE],> 46
12,NC1(c2ccccc2)CCCCC1 [1-Phenylcyclohexyl],> 46
13,"O=[N+]([O-])c1c(Cl)c(Cl)cc(Cl)c1Cl [2,3,5,6-Tetrachloronitrobenzene]",> 46
14,"Oc1cc(Cl)c(Cl)cc1Cl [2,4,5-Trichlorophenol]",> 46
15,"COc1cc(OC)c(OC)cc1C=O [2,4,5-Trimethoxybenzaldehyde]",> 46
16,"Oc1c(Br)cc(Br)cc1Br [2,4,6-Tribromophenol]",> 46
17,"CCN(CC)N(O)N=O.CCNCC [2-(N,N-DIETHYLAMINO)DIAZENOLATE-2-OXIDE DIETHYLAMONIUM SALT]",> 46
18,N=C(N)NN.O=[S+]([O-])(O)O [2-AMINOGUANIDINE HEMISULFATE],> 46
19,Brc1ccccc1-c1ccccc1 [2-Bromobiphenyl],> 46
20,CCOCCOC(C)=O [2-Ethoxyethyl acetate],> 46

row,Compound,IC50 of cell viability [µM]
1,OCCOc1ccccc1 [2-Phenoxyethanol],> 46
2,O.O.O.O.[Na+].[O-]c1ccccc1-c1ccccc1 [2-Phenylphenol sodium salt tetrahydrate technical],> 46
3,"CN1CC[C@@]23C4OC5=C(OC(C)=O)C=CC(=C25)C[C@@H]1C3\C=C/C4OC(C)=O (stereo partly specified) [3,6-Diacetylmorphine]",> 46
4,N#CCCN.N#CCCN.O=C(O)/C=C/C(=O)O [3-Aminopropionitrile fumarate],> 46
5,OCCCBr [3-Bromo-1-propanol],> 46
6,C[N+]1(C)C2CCC1CC(OC(=O)c1c[nH]c3ccccc13)C2.[I-] (stereo unspecified) [3-Tropanylindole-3-carboxylate methiodide],> 46
7,CC(=O)O[C@H]1CC[C@@]2(C)C(=CC[C@H]3[C@@H]4CC[C@H](C(C)=O)[C@@]4(C)CC[C@@H]32)C1 [3BETA-ACETOXY-5-PREGNENE-20-ONE],> 46
8,"O=[S+]([O-])(c1ccc(Cl)cc1)c1ccc(Cl)cc1 [4,4'-Dichlorodiphenyl sulfone]",> 46
9,"Nc1ccc(Sc2ccc(N)cc2)cc1 [4,4'-Thiodianiline]",> 46
10,"Oc1noc2c1CCNC2 [4,5,6,7-TETRAHYDROISOXAZOLO[5,4-c]PYRIDIN-3-OL]",> 46
11,"CC(C)(C)CC(C)(C)c1ccc(O)cc1 [4-(1,1,3,3-Tetramethylbutyl)phenol]",> 46
12,"O=C(O)CCCOc1ccc(Cl)cc1Cl [4-(2,4-Dichlorophenoxy)butyric acid]",> 46
13,Nc1ccncc1 [4-AMINOPYRIDINE],> 46
14,Nc1ccc(/N=N/c2ccccc2)cc1 [4-Aminoazobenzene],> 46
15,"CC12CCC3C(CC\C4=C(/O)C(=O)CCC34C)C1CCC2=O (stereo unspecified) [4-Androsten-4-ol-3,17-dione]",> 46
16,Nc1ccc(Cl)cc1N [4-Chloro-o-phenylenediamine],> 46
17,NCCc1ccc(O)cc1 [4-HYDROXYPHENETHYLAMINE],> 46
18,O=P1(N(CCCl)CCCl)NC(OO)CCO1 (stereo unspecified) [4-Hydroperoxy Cyclophosphamide],> 46
19,Nc1ccc([N+](=O)[O-])cc1 [4-Nitroaniline],> 46
20,"CCCCCCCCCc1ccc(O)cc1 [4-Nonylphenol, branched]",> 46

# More lines, now with the values ahead:
row,IC50 of cell viability [µM],Compound
1,> 46,"Nc1ccccc1N [1,2-Phenylenediamine]"
2,> 46,"CC(O)CO (stereo unspecified) [1,2-Propylene glycol]"
3,> 46,"COc1cc(OC)cc(OC)c1 [1,3,5-TRIMETHOXYBENZENE]"
4,> 46,"N=C1NC(=N)c2cc3ccccc3cc21 [1,3-Diiminobenz[f]isoindoline]"
5,> 46,"O=[S+]([O-])(O)CCC[S+](=O)([O-])O.[NaH] [1,3-PROPANEDISULFONIC ACID, DISODIUM SALT]"
6,> 46,"Nc1cccc2c(N)cccc12 [1,5-Diaminonaphthalene]"
7,> 46,"CCCC(=O)c1cc(O)c(O)cc1O [1-(2,4,5-trihydroxyphenyl)-1-butanone]"
8,> 46,O=C(O)Cc1cccc2ccccc12 [1-Naphthalene acetic acid]
9,> 46,O=C(O)Cc1cccc2ccccc12 [1-Naphthaleneacetic acid]
10,> 46,CC1=NN(c2ccccc2)C(=O)C1 [1-Phenyl-3-methyl-5-pyrazolone]
11,> 46,"Nc1ncnc2c1ncn2[C@H]1CC[C@@H](CO)O1 [2',3'-DIDEOXYADENOSINE]"
12,> 46,"NC/1=N/C(=O)N(/C=C1)[C@H]2CC[C@@H](CO)O2 [2',3'-Dideoxycytidine]"
13,> 46,"c1ccc2occc2c1 [2,3-Benzofuran]"
14,> 46,"O.O=S(=O)([O-])CC(S)CS.[Na+] (stereo unspecified) [2,3-DIMERCAPTOPROPANE-1-SULFONATE SODIUM]"
15,> 46,"CCCCCCCCCCCCCCCC(=O)OC[C@@H](COP(=O)([O-])OCC[N+](C)(C)C)OC(=O)CCCCCCCCCCCCCCC [2,3-Dipalmitoyl-sn-glycero-1-phosphocholine]"
16,> 46,"Nc1cc(O)nc(N)n1 [2,4-Diamino-6-hydroxypyrimidine]"
17,> 46,"Nc1ncnc(Nc2ccc(Cl)cc2)n1 [2-AMINO-4-(4-CHLOROANILINO)-1,3,5-TRIAZINE]"
18,> 46,Nc1ccc([N+](=O)[O-])cc1O [2-Amino-5-nitrophenol]
19,> 46,Nc1nc2ccc([N+](=O)[O-])cc2s1 [2-Amino-6-nitrobenzothiazole]
20,> 46,"CCCC(O)C(CC)CO (stereo unspecified) [2-ETHYL-1,3-HEXANEDIOL]"
21,> 46,CCOc1ccccc1C(N)=O [2-Ethoxybenzamide (Ethenzamide)]
22,> 46,O=C(OCCO)c1ccccc1O [2-Hydroxyethyl salicylate]
23,> 46,Sc1nc2ccccc2s1 [2-Mercaptobenzothiazole]

row,IC50 of cell viability [µM],Compound
1,> 46,COc1ccccc1O [2-Methoxyphenol]
2,> 46,Cc1ncc[nH]1 [2-Methylimidazole]
3,> 46,"Nc1ccc(N)c([N+](=O)[O-])c1 [2-Nitro-1,4-phenylenediamine]"
4,> 46,O=C(O)CCC(=O)C(=O)O [2-Oxopentanedioic acid]
5,> 46,O=C(O)c1cc(-c2ccccc2)nc2ccccc12 [2-Phenyl-4-quinolinecarboxylic acid]
6,> 46,OCCc1ccccc1 [2-Phenylethanol]
7,> 46,"CC(O)COc1ccccc1 (stereo unspecified) [2-Propanol, 1-phenoxy-]"
8,> 46,CC(C)O [2-Propanol]
9,> 46,Oc1ccnc(S)n1 [2-THIOURACIL]
10,> 46,"CC1CC(O)CC(C)(C)C1 (stereo unspecified) [3,3,5-TRIMETHYLCYCLOHEXANOL]"
11,> 46,"Nc1ccncc1N [3,4-DIAMINOPYRIDINE PHOSPHATE]"
12,> 46,"N[C@@H](Cc1cc(I)c(O)c(I)c1)C(=O)O [3,5-DIIODO-L-TYROSINE]"
13,> 46,C1N2CN3CN1CN(C2)C3 [3-0760 Hexamethylenetetramine]
14,> 46,"OCC(O)COc1ccc(Cl)cc1 (stereo unspecified) [3-(4-CHLOROPHENOXY)-1,2-PROPANEDIOL]"
15,> 46,OCCCc1ccccc1 [3-Phenyl-1-propanol]
16,> 46,OCc1cccnc1 [3-Pyridinemethanol]
17,> 46,CCCn1c(=O)[nH]c(=O)c2[nH]cnc21 [3-n-PROPYLXANTHINE]
18,> 46,Nc1ccc(O)c([N+](=O)[O-])c1 [4-Amino-2-nitrophenol]
19,> 46,Nc1ccc(O)cc1 [4-Aminophenol]
20,> 46,CN(C)\C1=C(/C)N(C)N(C2=CC=CC=C2)C1=O [4-Dimethylaminoantipyrine]
21,> 46,CCCCCCCCCC(CC)c1ccc([S+](=O)([O-])O)cc1 (stereo unspecified) [4-Dodecylbenzenesulfonic acid]
22,> 46,CCCCCCc1ccc(O)cc1O [4-Hexylresorcinol]
23,> 46,Cc1cn[nH]c1.Cl [4-Methylpyrazole hydrochloride]
